Drawing on US6562872B1, “Emulsion of perfluoroorganic compounds for medical purposes, a process for the preparation thereof and methods for treating and preventing diseases with the use thereof” (Otkrytoe Aktsionernoe Obschestvo Naucho-Proizvodstven-Naya …, priority 2001, dated 2003), this text covers solubility and Solubility in membranes for four compounds.

A short description of data set [1]: Solubility of PFOCs in olive oil lipids. The note with it: oil or lipid, 37° C. It is filed as physicochemical.
Data set [2] is described as follows: Solubility of PFOCs in membranes of erythrocytes. It is filed as physicochemical. The note with it: 37° C.

Values after ≈ are worked out from the molar mass of the structure shown.

Regarding `FC1(F)C(F)(F)C(F)(F)C2(F)C(F)(F)C(F)(F)C(F)(F)C(F)(F)C2(F)C1(F)F` (centres unmarked) [Perfluorodecalin (PFD), perfluorodecalin], the solubility in data set [1] was determined as 26 mM (≈ 12000 µg/mL). For the same compound, in data set [2], the Solubility in membranes is reported as 2.0 ml per kg of dry membranes.
As for `FC(F)(F)C(F)(F)C(F)(F)C(F)(F)N(C(F)(F)C(F)(F)C(F)(F)C(F)(F)F)C(F)(F)C(F)(F)C(F)(F)C(F)(F)F` [Perfluorotributylamine], the solubility in data set [1] was 1.2 mM (≈ 805 µg/mL). Also, the Solubility in membranes in data set [2] was 0.08 ml per kg of dry membranes.
As to `FC(F)(F)C(F)(F)C(F)(F)N(C(F)(F)C(F)(F)C(F)(F)F)C(F)(F)C(F)(F)C(F)(F)F` [Perfluorotripropylamine], the solubility in data set [1] was 5.1 mM (≈ 2660 µg/mL). Also, in data set [2], the Solubility in membranes is reported as 0.3 ml per kg of dry membranes.
The corresponding values for `FC(F)(F)C1(F)C(F)(F)C(F)(F)C(F)(N2C(F)(F)C(F)(F)C(F)(F)C(F)(F)C2(F)F)C(F)(F)C1(F)F` (centres unmarked) [perfluoro-N-(4-methylcyclohexyl)-piperidine] are 7.6 mM (≈ 4520 µg/mL) and 0.5 ml per kg of dry membranes.
